{"source": "paper PMC7179119", "about": "“A New Positron Emission Tomography Probe for Orexin Receptors Neuroimaging” (Molecules, 2020)", "key": {"[1]": {"target": "T1, Human recombinant OX2 receptors (Homo sapiens, UniProt O43614)", "T1 sequence (O43614 1-444)": "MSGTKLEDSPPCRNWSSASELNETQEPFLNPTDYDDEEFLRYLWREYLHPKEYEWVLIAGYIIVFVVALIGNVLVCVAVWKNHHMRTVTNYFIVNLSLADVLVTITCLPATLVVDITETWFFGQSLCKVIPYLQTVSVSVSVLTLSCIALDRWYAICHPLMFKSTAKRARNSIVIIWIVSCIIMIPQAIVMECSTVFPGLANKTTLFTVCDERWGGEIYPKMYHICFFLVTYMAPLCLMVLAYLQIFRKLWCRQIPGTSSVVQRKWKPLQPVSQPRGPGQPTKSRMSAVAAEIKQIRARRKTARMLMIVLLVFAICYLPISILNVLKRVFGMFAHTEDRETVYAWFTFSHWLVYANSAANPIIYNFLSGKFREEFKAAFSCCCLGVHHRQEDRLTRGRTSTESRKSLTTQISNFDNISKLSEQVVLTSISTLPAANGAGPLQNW", "test": "Human Orexin GPCR Binding (Agonist Radioligand) Assay, [125I] Orexin A competition", "procedure": "(§1) Radioligand competition binding assays were performed by Panlabs, Eurofins Pharma Discovery Services. Briefly, human recombinant orexin OX1 receptors expressed in CHO-S cells were used in modified HEPES buffer pH 7.4. […] Orexin A for 60 minutes at 25 °C. […] Orexin A specifically binding. Human recombinant OX2 receptors were used in modified HEPES buffer pH 7.4. […] Orexin A for 180 minutes at 25 °C. […] Orexin A specifically bound."}, "[2]": {"target": "T2, human recombinant orexin OX1 receptors (Homo sapiens, UniProt O43613)", "T2 construct": "host or cells: CHO-S cells", "T2 sequence (O43613 1-425)": "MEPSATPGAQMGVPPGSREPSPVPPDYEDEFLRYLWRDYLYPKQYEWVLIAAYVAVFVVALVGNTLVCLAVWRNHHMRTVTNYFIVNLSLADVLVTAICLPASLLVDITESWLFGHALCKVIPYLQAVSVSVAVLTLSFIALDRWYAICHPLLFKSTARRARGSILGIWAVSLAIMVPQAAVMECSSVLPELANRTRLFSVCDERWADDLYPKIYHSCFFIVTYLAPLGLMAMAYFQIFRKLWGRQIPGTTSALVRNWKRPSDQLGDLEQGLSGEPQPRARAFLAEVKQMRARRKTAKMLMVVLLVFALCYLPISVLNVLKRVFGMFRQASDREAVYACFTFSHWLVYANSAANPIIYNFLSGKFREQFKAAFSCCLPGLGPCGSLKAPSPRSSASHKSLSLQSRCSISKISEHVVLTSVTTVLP", "test": "Human Orexin GPCR Binding (Agonist Radioligand) Assay, [125I] Orexin A competition", "procedure": "as §1"}, "Alpha1A": {"target": "T3, Alpha1A (Homo sapiens, UniProt P35348)", "T3 construct": "NIMH PDSP", "T3 sequence (P35348 1-466)": "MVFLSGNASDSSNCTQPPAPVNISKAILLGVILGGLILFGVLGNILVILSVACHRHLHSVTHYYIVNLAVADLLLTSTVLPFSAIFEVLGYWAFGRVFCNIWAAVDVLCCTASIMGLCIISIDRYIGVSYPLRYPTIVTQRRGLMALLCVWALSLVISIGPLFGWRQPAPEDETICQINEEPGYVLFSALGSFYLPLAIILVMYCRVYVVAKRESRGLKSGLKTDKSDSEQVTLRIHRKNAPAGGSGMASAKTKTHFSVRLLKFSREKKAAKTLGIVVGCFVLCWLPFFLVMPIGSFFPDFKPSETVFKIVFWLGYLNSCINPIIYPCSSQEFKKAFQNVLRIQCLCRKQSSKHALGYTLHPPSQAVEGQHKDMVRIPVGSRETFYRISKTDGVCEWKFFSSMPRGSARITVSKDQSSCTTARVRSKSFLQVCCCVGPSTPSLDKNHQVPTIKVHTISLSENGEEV", "test": "PDSP off-target radioligand binding assay", "procedure": "(§2) Table S1. Off binding data of CW24.\n(§3) The off-target binding assays were performed at PDSP with their standard protocol (https://pdspdb.unc.edu/pdspWeb/content/UNC-CH%20Protocol%20Book.pdf). In radioligand binding assays, CW24 was tested at a single concentration (10 µM) and in quadruplicate in 96-well plates. The binding assays were carried out in a final of volume of 125 µl per well in appropriate binding buffers. The hot ligand concentration is usually at a concentration close to the Kd (unless otherwise indicated). Total binding and nonspecific binding are determined in the absence and presence of 10 µM of the appropriate reference compound, respectively. In brief, plates are usually incubated at room temperature and in the dark for 90 mins. Reactions are stopped by vacuum filtration onto 0.3% polyethyleneimine (PEI) soaked 96-well filter mats using a 96-well Filtermate harvester, followed by three washes with cold wash buffers (for details, see Tables 2 to 24). Scintillation cocktail is then melted onto the microwave-dried filters on a hot plate and radioactivity is counted in a Microbeta counter.\n(§4) Receptor % Inhibition 1 % Inhibition 2 % Inhibition 3 % Inhibition 4 Mean±SD %"}, "M5": {"target": "T4, M5 (Homo sapiens, UniProt P08912)", "T4 sequence (P08912 1-532)": "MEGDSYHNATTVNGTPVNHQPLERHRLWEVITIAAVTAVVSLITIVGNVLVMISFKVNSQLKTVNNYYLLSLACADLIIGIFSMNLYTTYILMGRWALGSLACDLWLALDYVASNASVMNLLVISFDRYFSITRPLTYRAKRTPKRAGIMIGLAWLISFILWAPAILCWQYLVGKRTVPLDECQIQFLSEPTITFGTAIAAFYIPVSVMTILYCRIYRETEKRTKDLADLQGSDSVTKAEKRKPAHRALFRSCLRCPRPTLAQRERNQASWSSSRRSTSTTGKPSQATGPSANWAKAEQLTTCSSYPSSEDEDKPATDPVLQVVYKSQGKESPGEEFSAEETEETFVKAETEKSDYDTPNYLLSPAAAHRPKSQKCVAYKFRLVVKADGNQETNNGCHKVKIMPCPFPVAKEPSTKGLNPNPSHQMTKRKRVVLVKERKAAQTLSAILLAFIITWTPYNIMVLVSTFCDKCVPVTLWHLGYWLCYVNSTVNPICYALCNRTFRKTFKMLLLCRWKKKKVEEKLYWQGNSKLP", "test": "PDSP off-target radioligand binding assay", "procedure": "as §2, §3, §4"}, "[3]": {"settings": "quadruplicate, read-out: Mean±SD % inhibition"}, "[4]": {"settings": "replicate 1, read-out: % Inhibition 1"}, "[5]": {"settings": "replicate 2, read-out: % Inhibition 2"}, "[6]": {"settings": "replicate 3, read-out: % Inhibition 3"}, "[7]": {"settings": "replicate 4, read-out: % Inhibition 4"}}, "note": "Read-outs that look alike come from different tables or passages of the source.", "data": [{"smiles": "COc1ccnc(N2CCC3(CCCN(Cc4cn(C)c5ccccc45)C3=O)CC2)n1", "note": "[CW24]", "values": [{"measurement": "increase in potency compared to IPSU binding (OX2R)", "setting": "[1]; CW24 vs IPSU", "value": "~ 2 fold"}, {"measurement": "IC50", "setting": "[1]; competition binding against [^125I] orexin, read-out: IC50 OX2R", "value": 1410, "unit": "nM"}, {"measurement": "increase in potency compared to IPSU binding (OX1R)", "setting": "[2]; CW24 vs IPSU", "value": "~ 5 fold"}, {"measurement": "IC50", "setting": "[2]; competition binding against [^125I] orexin, read-out: IC50 OX1R", "value": 253, "unit": "nM"}, {"measurement": "inhibition at 10 µM", "setting": "Alpha1A; [3]", "value": "-7.99 ± 16.7", "unit": "%"}, {"measurement": "inhibition at 10 µM", "setting": "Alpha1A; [4]", "value": 17, "unit": "%"}, {"measurement": "inhibition at 10 µM", "setting": "Alpha1A; [5]", "value": -16.2, "unit": "%"}, {"measurement": "inhibition at 10 µM", "setting": "Alpha1A; [6]", "value": -17.6, "unit": "%"}, {"measurement": "inhibition at 10 µM", "setting": "Alpha1A; [7]", "value": -15.1, "unit": "%"}, {"measurement": "inhibition at 10 µM", "setting": "M5; [3]", "value": "27.4 ± 11.1", "unit": "%"}, {"measurement": "inhibition at 10 µM", "setting": "M5; [4]", "value": 15.3, "unit": "%"}, {"measurement": "inhibition at 10 µM", "setting": "M5; [5]", "value": 31.9, "unit": "%"}, {"measurement": "inhibition at 10 µM", "setting": "M5; [6]", "value": 40.5, "unit": "%"}, {"measurement": "inhibition at 10 µM", "setting": "M5; [7]", "value": 21.6, "unit": "%"}]}]}
